In publication PMC9981671, “rRNA methylation by Spb1 regulates the GTPase activity of Nog2 during 60S ribosomal subunit assembly” (Nature Communications, 2023):

Biological target: Nog2 (Saccharomyces cerevisiae, UniProt P53742)
Test: cryo-EM structure of native pre-60S particle, […] A
Format: binding
Conditions: Nog2pre from spb1 D52A strain (unmethylated G2922); GTPase site with Mg2+ and K+; pH 8.0; also Nog2post (7UUI) and Nog2pre from spb1 D52A/E769K strain (7V08)

Nog2, sequence (P53742 whole entry): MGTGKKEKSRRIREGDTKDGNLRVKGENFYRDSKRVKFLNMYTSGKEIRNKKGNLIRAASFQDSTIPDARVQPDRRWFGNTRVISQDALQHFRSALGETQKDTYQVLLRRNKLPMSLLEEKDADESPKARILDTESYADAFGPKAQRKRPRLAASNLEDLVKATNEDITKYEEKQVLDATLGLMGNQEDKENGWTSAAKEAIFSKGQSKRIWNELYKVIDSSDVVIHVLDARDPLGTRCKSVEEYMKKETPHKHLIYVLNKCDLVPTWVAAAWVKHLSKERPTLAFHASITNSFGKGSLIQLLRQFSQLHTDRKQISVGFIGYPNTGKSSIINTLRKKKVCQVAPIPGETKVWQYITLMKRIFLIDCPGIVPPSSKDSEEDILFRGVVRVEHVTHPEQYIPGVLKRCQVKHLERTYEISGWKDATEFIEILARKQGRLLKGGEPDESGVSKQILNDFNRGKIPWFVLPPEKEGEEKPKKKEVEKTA

For `Nc1nc2c(ncn2[C@@H]2O[C@H](COP(=O)(O)OP(=O)(O)O)[C@@H](O)[C@H]2O)c(=O)[nH]1` [GDP], the “cryo-EM structure of native pre-60S particle, 2.4 A” value was “GTP hydrolysis has taken place and that GDP occupies the Nog2 active site”.
